Reference: patent US11572590B2, “Methods for evaluating tumor cell spheroids using 3D microfluidic cell culture device” (Dana-Farber Cancer Institute, Inc., priority 2017, dated 2023)
Like-named read-outs stand apart in the source and are kept apart here.

Key:
MC38 allograft = assay: MC38 allograft, Compound 1 and anti-PD-L1 combination in vivo; set-up: species or system mouse; conditions: Cmpd1 + αPD-L1; did not reach significance vs single-agent PD-L1
off-target kinases = off-target kinases (Homo sapiens, UniProt P07948); assay: SelectScreen Kinase Profiling, single point inhibition and IC50 for off-target kinases; format: biochemical; set-up: other: LYN B; 1000 μM; ATP Km app; ZLYTE; conditions: LYN B, ATP Km app, ZLYTE
off-target kinases, sequence (P07948 1-491 isoform P07948-2): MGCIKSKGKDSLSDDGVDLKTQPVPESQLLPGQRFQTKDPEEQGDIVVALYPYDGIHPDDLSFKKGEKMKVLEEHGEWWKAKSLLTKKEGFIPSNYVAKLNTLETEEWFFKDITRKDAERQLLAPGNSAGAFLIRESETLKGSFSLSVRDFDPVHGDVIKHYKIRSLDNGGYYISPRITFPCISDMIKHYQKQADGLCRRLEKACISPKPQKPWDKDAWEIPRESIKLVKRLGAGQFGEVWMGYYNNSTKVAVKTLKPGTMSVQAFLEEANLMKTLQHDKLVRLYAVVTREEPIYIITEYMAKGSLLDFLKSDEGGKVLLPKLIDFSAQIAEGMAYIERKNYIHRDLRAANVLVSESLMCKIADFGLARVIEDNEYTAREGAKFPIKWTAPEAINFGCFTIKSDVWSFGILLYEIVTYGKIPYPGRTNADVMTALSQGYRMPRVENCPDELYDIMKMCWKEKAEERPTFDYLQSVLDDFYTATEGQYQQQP
Protocol: Biochemical single point inhibition and IC50 concentrations for TBK1, IKKε (IKBKE), and off-target kinases were determined at ThermoFisher Scientific using SelectScreen Kinase Profiling Services (Madison, Wis., USA) (Tables S4A and S4B-1-7). To determine cellular potency, the human colorectal cancer carcinoma cell line HCT116 (ATCC, Manassas, Va.) was maintained in T175 flasks in complete RPMI medium; RPMI 1640 supplemented with 10% FBS, 1× Penicillin-Streptomycin solution and 1×MEM (non-essential amino acids). HCT116 cells were grown to 90-95% confluency in T175 flasks containing complete RPMI medium and transfected in bulk using Lipofectamine 2000 (Invitrogen, Carlsbad, Calif.) with 70 μg of ISG54-luciferase reporter plasmid (Elim Biopharmaceuticals Inc., Hayward, Calif.). The reporter plasmid contains a luciferase gene expression cassette under the transcriptional regulation of the promoter of the human interferon stimulated gene 54 (ISG54). Transfection of the cells was allowed to take place for 6 hours, after which the cells were harvested by treatment with 0.25% trypsin EDTA (Corning Inc., Corning, N.Y.). Trypsinized cells were added to 384-well poly-d-lysine treated black clear bottom tissue culture assay plates (Greiner Bio-One GmbH, Kremsmünster, Austria) at a density of 20,000 cells/well in 80 μL of complete RPMI medium and incubated overnight. After 16-18 hours post-transfection, the assay plates were washed with PBS (Corning Inc., Corning, N.Y.), followed by addition of 80 μL/well of serum-free RPMI 1640 medium containing 1× Penicillin-Streptomycin solution, 1×MEM and 350 nL of DMSO or titrations of Compound 1. […] The assay plates were incubated for 5 hours at 37° C., followed by addition of One-Glo luciferase firefly reagent (Promega, Madison, Wis.) at 1:1 volume/well and luminescence was measured in an EnVision Multilabel Plate Reader (PerkinElmer, Santa Clara, Calif.). The EC50 values were calculated from the fit of the dose-response curves to a four-parameter equation. […]

CT26 MDOTS = assay: Bead-based cytokine profiling of CT26 MDOTS; format: cell-based, murine; conditions: Cmpd1 (1 μM) ± anti-PD-1 (10 μg/mL)
Protocol: (§1) Fresh tumor specimens (murine and human patients) were received in media (DMEM) on ice and minced in a 10 cm dish (on ice) using sterile forceps and scalpel. Minced tumor was resuspended in DMEM ([…], […] sodium pyruvate, 1:100 penicillin-streptomycin) (Corning CellGro, Manassas, Va.) +10% FBS (Gemini Bio-Products, West Sacramento, Calif.), 100 U/mL collagenase type IV (Life Technologies, Carlsbad, Calif.), and 15 mM HEPES (Life Technologies, Carlsbad, Calif.), except for CT26 tumors that were prepared in RPMI. Samples were pelleted and resuspended in 10-20 mL media. Red blood cells were removed from visibly bloody samples using RBC Lysis Buffer (Boston Bio-Products, Ashland, Mass.). […]
(§2) Two multiplex assays were performed utilizing a bead-based immunoassay approach, the Bio-Plex Pro™ Human Cytokine 40-plex Assay (Cat #171AK99MR2) and Bio-Plex Pro™ Mouse Cytokine Panel 1, 23-plex (Cat #M60009RDPD) on a Bio-plex 200 system (Cat #171000201). […] Fold changes relative to the MDOT/PDOT control were calculated and plotted as log 2FC. Lower and upper limits of quantitation (LLOQ/ULOQ) were imputed from standard curves for cytokines above or below detection. […]

B16F10 MDOTS = assay: Bead-based cytokine profiling of B16F10 MDOTS; format: cell-based, murine; conditions: Cmpd1 (1 μM) ± αPD-1
Protocol: as §1, §2

## N#Cc1cc(-c2ncnc(Nc3ccc(N4CCN(C5COC5)CC4)cc3)n2)ccc1OC1CCOCC1 [Compound 1, 5-(4-((4-(4-(oxetan-3-yl)piperazin-1-yl)phenyl)amino)-1,3,5-triazin-2-yl)-2-((tetrahydro-2H-pyran-4-yl)oxy)benzonitrile]
MC38 allograft
  in vivo survival, MC38 model, combination treatment: enhanced
off-target kinases; read-out: % Inhibition 1
  inhibition: 56%
off-target kinases; read-out: % Inhibition 2
  inhibition: 50%
off-target kinases; read-out: % Inhibition Avg
  inhibition: 53%
CT26 MDOTS
  cytokines involved in activated innate immune responses (e.g., G-CSF) in CT26 MDOTS: concomitant induction
  levels of CCL4, CCL3, and IL-1β in CT26 MDOTS: Decreased levels
B16F10 MDOTS
  immune suppressive chemokines (e.g., CCL2, CCL5) in B16F10 MDOTS: downregulation
  induction of G-CSF and related innate immune response cytokines in B16F10 MDOTS: without concomitant induction
